{
  "source": "paper PMC10766536",
  "about": "(The Journal of Antibiotics, 2023)",
  "key": {"[1]": {"test_system": "S. aureus MRSA strain N315", "test": "S. aureus IV advanced disseminated infection mouse model, kidney burden", "assay_type": "in vivo, Balb/c mice", "procedure": "(§1) S. aureus MSRA strain NRS384 or N315 (BEI Resources), where indicated, was grown overnight in TSB and sub-cultured to mid-logarithmic phase. […] From 1 to 3 days post-infection, indicated mice were injected subcutaneously with 110 mg/kg vancomycin twice daily where indicated. […] Mice were monitored for weight loss and body conditioning score throughout the infection. At 4 days post-infection, mice were euthanized, and the S. aureus kidney burden was quantified by tissue homogenization followed by enumeration of cfu through serial dilution in PBS and plating onto TSA plates. Data points represent the kidney burden from individual mice tested. Statistical analysis was conducted with GraphPad Prism 9, Version 9.4.1."}, "[2]": {"test_system": "S. aureus MRSA strain NRS384", "test": "S. aureus IV advanced disseminated infection mouse model, kidney burden", "assay_type": "in vivo, Balb/c mice", "conditions": "0.01–0.25 mg/kg sc single dose in combination with vancomycin, NRS384", "procedure": "as §1"}, "[3]": {"test": "Toxicokinetics in 2-week IV rat toxicity study", "assay_type": "in vivo", "procedure": "A subset from each dose group was maintained for 14 days after the last dose to evaluate delayed toxicity and/or recovery. All animals were observed twice daily for mortality and signs of pain or distress. Detailed clinical observations, body weight measurements and food consumption were conducted weekly; post dose observations (30 min post dose) were conducted daily or as required. Clinical pathology evaluations (hematology, coagulation parameters, and serum chemistry) were performed using samples collected on the day of scheduled sacrifice (main and recovery). At the end of the 14-day dosing period, and at the end of the 14-day recovery period, necropsies were performed on all animals, selected organs were weighed, and tissues were examined macroscopically and microscopically. Toxicokinetic parameters were evaluated on Day 1 and 14."}, "[4]": {"molecular_target": "MDCK-MDR1: overexpression of Pgp (Homo sapiens, UniProt P08183)", "sequence (P08183 whole entry)": "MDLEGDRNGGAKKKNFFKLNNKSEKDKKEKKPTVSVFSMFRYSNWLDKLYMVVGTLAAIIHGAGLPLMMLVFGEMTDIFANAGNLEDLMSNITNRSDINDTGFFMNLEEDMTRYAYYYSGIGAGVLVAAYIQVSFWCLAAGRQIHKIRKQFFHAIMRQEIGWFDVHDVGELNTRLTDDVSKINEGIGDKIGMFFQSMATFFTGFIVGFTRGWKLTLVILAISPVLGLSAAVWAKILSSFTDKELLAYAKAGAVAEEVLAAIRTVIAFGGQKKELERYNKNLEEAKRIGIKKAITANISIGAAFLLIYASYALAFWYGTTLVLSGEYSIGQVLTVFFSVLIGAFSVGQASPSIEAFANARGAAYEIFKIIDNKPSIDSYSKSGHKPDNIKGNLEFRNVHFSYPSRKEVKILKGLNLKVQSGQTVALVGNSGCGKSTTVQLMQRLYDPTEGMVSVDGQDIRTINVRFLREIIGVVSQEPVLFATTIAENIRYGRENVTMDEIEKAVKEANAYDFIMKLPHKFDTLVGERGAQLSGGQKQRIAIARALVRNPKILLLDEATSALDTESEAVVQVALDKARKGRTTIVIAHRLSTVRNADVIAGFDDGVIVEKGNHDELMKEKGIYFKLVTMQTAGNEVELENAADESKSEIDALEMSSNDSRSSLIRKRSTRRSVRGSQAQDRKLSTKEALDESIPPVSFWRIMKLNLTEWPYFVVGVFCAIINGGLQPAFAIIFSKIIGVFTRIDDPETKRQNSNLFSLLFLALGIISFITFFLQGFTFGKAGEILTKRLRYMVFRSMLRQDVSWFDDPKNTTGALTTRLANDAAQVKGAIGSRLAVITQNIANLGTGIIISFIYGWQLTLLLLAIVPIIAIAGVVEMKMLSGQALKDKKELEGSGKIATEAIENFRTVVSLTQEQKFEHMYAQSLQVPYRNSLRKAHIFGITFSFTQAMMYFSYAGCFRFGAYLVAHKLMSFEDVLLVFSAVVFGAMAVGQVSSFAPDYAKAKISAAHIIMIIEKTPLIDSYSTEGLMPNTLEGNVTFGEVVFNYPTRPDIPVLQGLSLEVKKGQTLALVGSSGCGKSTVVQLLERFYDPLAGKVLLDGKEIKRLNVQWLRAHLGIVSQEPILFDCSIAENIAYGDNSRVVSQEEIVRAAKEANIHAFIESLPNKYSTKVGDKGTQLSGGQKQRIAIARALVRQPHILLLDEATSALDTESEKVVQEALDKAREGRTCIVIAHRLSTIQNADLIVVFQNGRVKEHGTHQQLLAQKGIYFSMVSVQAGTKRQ"}, "[5]": {"test_system": "Salmonella typhimurium AR-0031", "test": "S. typhimurium broth killing (growth inhibition) assay", "conditions": "Salmonella typhimurium AR-0031, TSB, 24 h", "text": "To test the potency of rifamycin analogs of the disclosure in vitro, a broth growth inhibition assay was developed."}},
  "data": [
    {"smiles": "COC1C=COC2(C)Oc3c(C)c(O)c4c(=O)c(c5oc6cc(OCCN(C)C)ccc6nc-5c4c3C2=O)NC(=O)C(C)=CC=CC(C)C(O)C(C)C(O)C(C)C(OC(C)=O)C1C", "note": "(centres unmarked) [Compound 4]", "values": [
      {"measurement": "bacterial load (kidney)", "setting": "[1]; 0.01 mg/kg in combination with vancomycin", "value": "below the limit of detection"},
      {"measurement": "S. aureus kidney burden", "setting": "[1]; 0.01–0.75 mg/kg in combination with vancomycin", "value": "to or near the limit of detection"},
      {"measurement": "S. aureus kidney burden", "setting": "[2]", "value": "further reduced kidney burden"},
      {"measurement": "accumulation following 14 daily doses", "setting": "[3]; rat IV QD", "value": "No apparent accumulation"},
      {"measurement": "sex difference in exposure", "setting": "[3]; rat IV QD 1 mg/kg/day, males vs females", "value": "No sex difference"},
      {"measurement": "dose proportionality of Cmax and AUCtau", "setting": "[3]; rat IV QD 0.1-10 mg/kg/day", "value": "approximately dose-proportional"},
      {"measurement": "AUC or Cmax when coadministered with vancomycin", "setting": "[3]; rat IV, 1 + 110 mg/kg/day, compound 5: except Day 1, slightly greater Cmax and AUC", "value": "not impacted"},
      {"measurement": "Mean A-B % Recovery", "setting": "[4]", "value": 89.10, "unit": "%"},
      {"measurement": "Mean B-A % Recovery", "setting": "[4]", "value": 54.80, "unit": "%"},
      {"measurement": "Mean Papp A-B", "setting": "[4]", "value": "1.38 10^−6 cm/s"},
      {"measurement": "Mean Papp B-A", "setting": "[4]", "value": "18.9 10^−6 cm/s"},
      {"measurement": "Fold Induction (Enzyme Activity)", "setting": "CYP 2B6", "value": 0.0131},
      {"measurement": "Fold Induction (Enzyme Activity)", "setting": "CYP 3A4", "value": 0.128},
      {"measurement": "Broth MIC", "setting": "[5]", "value": 1, "unit": "µM"}
    ]}
  ]
}
